From the supplement of paper PMC10307832

Experiments:
Assay in all cases: relative viability (nuclei count vs DMSO), 5 days (fraction); higher = more cells survive
[1] = compound: Cc1ccc2nc(NCCN)c3ncc(C)n3c2c1 + COc1cc2c(Oc3ccc(NC(=O)C4(C(=O)Nc5ccc(F)cc5)CC4)cc3F)ccnc2cc1OCCCN1CCOCC1 [Foretinib] (partner 0.25 µM)
In short: (§1)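 Relative viability equals treated-well nuclei counts divided by vehicle-well nuclei counts. Counts came from 4× images of lung cancer cell lines grown in 1536-well plates for 5 days after pin-tool dosing on the day after seeding. Dosing used one drug alone or a fixed anchor-drug dose plus five library-drug doses (not always all listed) in √10 steps, and values are medians of duplicate plates.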

[2] = compound: Cc1ccc2nc(NCCN)c3ncc(C)n3c2c1 + CS(=O)(=O)CCNCc1ccc(-c2ccc3ncnc(Nc4ccc(OCc5cccc(F)c5)c(Cl)c4)c3c2)o1 [Lapatinib] (partner 2 µM)
In short: as §1

[3] = compound: O=C(/C=C/c1ccccc1)NC(NC(=S)Nc1cccc2cccnc12)C(Cl)(Cl)Cl [Salubrinal] + COc1cccc2cc(-c3nc([C@H]4CC[C@H](C(=O)O)CC4)n4ncnc(N)c34)[nH]c12 [OSI-027] (partner 0.5 µM)
In short: as §1

[4] = compound: O=C(/C=C/c1ccccc1)NC(NC(=S)Nc1cccc2cccnc12)C(Cl)(Cl)Cl [Salubrinal] + NC(=O)Nc1cc(-c2cccc(F)c2)sc1C(=O)N[C@H]1CCCNC1 [AZD7762] (partner 0.2 µM)
In short: as §1

| Cell Line | relative viability ([1]; first compound 0.04 µM) | relative viability ([1]; first compound 0.1265 µM) | relative viability ([1]; first compound 0.4 µM) | relative viability ([1]; first compound 1.265 µM) | relative viability ([1]; first compound 4 µM) | relative viability ([2]; first compound 0.04 µM) | relative viability ([2]; first compound 0.1265 µM) | relative viability ([2]; first compound 0.4 µM) | relative viability ([2]; first compound 1.265 µM) | relative viability ([2]; first compound 4 µM) | relative viability ([3]; first compound 0.08 µM) | relative viability ([3]; first compound 0.253 µM) | relative viability ([3]; first compound 0.8 µM) | relative viability ([3]; first compound 2.53 µM) | relative viability ([3]; first compound 8 µM) | relative viability ([4]; first compound 0.08 µM) | relative viability ([4]; first compound 0.253 µM) | relative viability ([4]; first compound 0.8 µM) | relative viability ([4]; first compound 2.53 µM) | relative viability ([4]; first compound 8 µM) |
| --- | --- | --- | --- | --- | --- | --- | --- | --- | --- | --- | --- | --- | --- | --- | --- | --- | --- | --- | --- | --- |
| 201T | 1.07 | 1.13 | 1.1 | 1.1 | 1.05 | 1.07 | 1.03 | 0.989 | 1.17 | 0.98 | 0.933 | 0.799 | 0.863 | 0.782 | 0.732 | 0.627 | 0.616 | 0.741 | 0.648 | 0.637 |
| A549 | 1.08 | 0.85 | 0.975 | 0.921 | 0.855 | 1.23 | 0.941 | 0.918 | 1 | 0.83 | – | – | – | – | – | – | – | – | – | – |
| A-427 | 1.09 | 1.03 | 0.962 | 1 | 0.948 | 1.13 | 1.06 | 1.02 | 0.957 | 1.06 | 0.409 | 0.516 | 0.568 | 0.437 | 0.452 | 0.892 | 0.716 | 0.755 | 0.802 | 0.67 |
| ABC-1 | 1.22 | 1.05 | 1.09 | 0.839 | 1.01 | 1.18 | 1.16 | 1.12 | 0.783 | 1.03 | 0.513 | 0.578 | 0.712 | 0.626 | 0.371 | 0.97 | 0.998 | 0.948 | 0.898 | 0.825 |
| BEN | 0.82 | 0.86 | 0.657 | 0.788 | 0.752 | 0.894 | 0.6 | 0.827 | 0.77 | 0.709 | 0.322 | 0.407 | 0.318 | 0.309 | 0.324 | 0.642 | 0.727 | 0.802 | 0.712 | 0.72 |
| CAL-12T | 1.14 | 0.967 | 1.13 | 1.14 | 0.97 | 0.892 | 0.714 | 0.674 | 0.553 | 0.502 | 0.444 | 0.541 | 0.606 | 0.542 | 0.454 | 0.625 | 0.657 | 0.741 | 0.577 | 0.619 |
| COR-L23 | 0.966 | 0.915 | 0.938 | 1.01 | 0.865 | 1.27 | 0.874 | 0.924 | 0.837 | 0.853 | 0.868 | 0.547 | 1.1 | 0.794 | 0.71 | – | – | – | – | – |
| COR-L 105 | 1.18 | 0.995 | 0.86 | 0.987 | 1.15 | 0.451 | 0.351 | 0.352 | 0.399 | 0.339 | 0.74 | 0.632 | 0.758 | 0.735 | 0.613 | – | – | – | – | – |
| Calu-6 | 0.855 | 0.841 | 0.815 | 0.833 | 0.811 | 1.09 | 1.03 | 1.07 | 1.07 | 0.737 | – | – | – | – | – | – | – | – | – | – |
| ChaGo-K-1 | 0.897 | 1.03 | 0.884 | 0.82 | 0.895 | – | – | – | – | – | 0.731 | 0.479 | 0.581 | 0.612 | 0.435 | 0.978 | 0.694 | 1 | 0.886 | 0.707 |
| EBC-1 | 0.0984 | 0.102 | 0.098 | 0.0921 | 0.0989 | 0.207 | 0.201 | 0.233 | 0.179 | 0.191 | – | – | – | – | – | – | – | – | – | – |
| EKVX | 0.987 | 1.04 | 0.866 | 0.822 | 0.777 | 0.232 | 0.197 | 0.216 | 0.283 | 0.213 | 0.701 | 0.641 | 0.657 | 0.454 | 0.673 | 0.78 | 0.591 | 0.999 | 0.721 | 0.757 |
| EMC-BAC-2 | 0.966 | 0.992 | 0.988 | 1.01 | 1.05 | 0.915 | 0.875 | 0.847 | 0.918 | 0.851 | 0.364 | 0.359 | 0.41 | 0.384 | 0.427 | 1.1 | 1.06 | 1.31 | 1.16 | 1.13 |
| HCC-44 | – | – | – | – | – | 0.961 | 0.993 | 1.01 | 0.99 | 1.01 | 0.371 | 0.411 | 0.759 | 0.501 | 0.484 | 1.02 | 1.01 | 1.02 | 1 | 0.977 |
| IA-LM | 1.19 | 1.25 | 1.07 | 1.16 | 0.928 | 1.02 | 0.833 | 0.581 | 1 | 0.7 | – | – | – | – | – | – | – | – | – | – |
| LCLC-103H | 0.753 | 0.919 | 0.802 | 0.761 | 0.633 | – | – | – | – | – | 0.494 | 0.393 | 0.5 | 0.49 | 0.398 | 0.856 | 0.699 | 0.806 | 0.815 | 0.701 |
